Reference: patent publication US9708336B2, “Metallo-beta-lactamase inhibitors” (priority 2014, dated 2017)
Like-named read-outs stand apart in the source and are kept apart here.

Experiments:
[1] = tested on: Serratia marcescens expressing IMP-1 (CL5741); experiment: Antibiotic potentiation activity: synergistic concentration (MITC95) with imipenem, OD600 growth; format: cell-based; conditions: concentration giving 95% inhibition of bacterial growth
Method in brief: (§1)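 Overnight colonies (35 °C) were suspended in saline, diluted 1:100 into 1.1× CAMHB, and exposed to test compound with imipenem at 4 μg/ml (optionally 1 μg/ml) in assay. After 22–24 h at 35 °C, growth was read by absorbance.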

[2] = tested on: Klebsiella pneumoniae expressing VIM-1 (IHMA599644); experiment: as above; format: cell-based; conditions: concentration giving 95% inhibition of bacterial growth
Method in brief: as §1

[3] = tested on: Escherichia coli expressing NDM-1 (CLB30005); experiment: as above; format: cell-based; conditions: concentration giving 95% inhibition of bacterial growth
Method in brief: as §1

NDM-1 = NDM-1 (Klebsiella pneumoniae, UniProt C7C422); experiment: biochemical; format: biochemical; conditions: fluorescence assay with CCF2-FA substrate; read-out: NDM-1 IC50
NDM-1, sequence (C7C422 whole entry, looked up, species assumed): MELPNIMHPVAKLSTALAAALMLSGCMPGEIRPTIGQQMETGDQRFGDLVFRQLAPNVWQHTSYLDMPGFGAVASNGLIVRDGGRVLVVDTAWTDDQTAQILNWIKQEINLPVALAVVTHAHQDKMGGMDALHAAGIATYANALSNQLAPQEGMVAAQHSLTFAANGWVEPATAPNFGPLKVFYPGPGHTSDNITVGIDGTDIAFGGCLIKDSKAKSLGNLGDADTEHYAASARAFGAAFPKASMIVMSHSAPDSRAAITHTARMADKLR

IMP-1 = IMP-1 (Serratia marcescens, UniProt P52699); experiment: biochemical; format: biochemical; conditions: fluorescence assay with CCF2-FA substrate; read-out: IMP-1 IC50
IMP-1, sequence (P52699 whole entry, looked up): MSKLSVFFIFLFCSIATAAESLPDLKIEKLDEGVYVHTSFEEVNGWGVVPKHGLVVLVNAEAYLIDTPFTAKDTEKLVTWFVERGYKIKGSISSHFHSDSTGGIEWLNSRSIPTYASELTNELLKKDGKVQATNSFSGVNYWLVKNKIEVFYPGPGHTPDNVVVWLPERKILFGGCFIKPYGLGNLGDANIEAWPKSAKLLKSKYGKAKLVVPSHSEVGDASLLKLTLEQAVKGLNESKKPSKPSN

VIM-1 = VIM-1 (Pseudomonas aeruginosa (strain ATCC 15692 / DSM 22644 / CIP 104116 / JCM 14847 / LMG 12228 / 1C / PRS 101 / PAO1), UniProt A0A0F7KYQ8); experiment: Enzyme activity: determination of IC50, fluorescence assay with CCF2-FA substrate (VIM-1); format: biochemical
[4] = fluorescence assay with CCF2-FA substrate, read-out: VIM-1 IC50
[5] = VIM-1 IC50, fluorescence assay with CCF2-FA substrate

SMILES | Serratia marcescens expressing IMP-1 (CL5741) MITC95 [1] [µM] | Klebsiella pneumoniae expressing VIM-1 (IHMA 599644) MITC95 [2] [µM] | Escherichia coli expressing NDM-1 (CLB 30005) MITC95 [3] [µM] | IC50 (NDM-1) [µM] | IC50 (IMP-1) [µM] | IC50 (VIM-1; [4]) [µM] | IC50 (VIM-1; [5]) [µM]
CS(=O)(=O)c1ccc(-c2cccc(S(N)(=O)=O)c2-c2nn[nH]n2)cn1 [Example 58, 3-[6-(methylsulfonyl)pyridin-3-yl]-2-(2H-tetrazol-5-yl)benzenesulfonamide] | 12.5 | 100 | 0.5859 | 0.0145 | 0.227 | 0.19 | –
NS(=O)(=O)c1cccc(-c2ccnn2Cc2ccccc2)c1-c1nn[nH]n1 [Example 95, 3-(1-benzyl-1H-pyrazol-5-yl)-2-(2H-tetrazol-5-yl)benzenesulfonamide] | 106.3 | >200 | 3.906 | 0.00151 | 0.534 | – | 0.375
NS(=O)(=O)c1cccc(-c2cnn(Cc3ccccn3)c2)c1-c1nn[nH]n1 [Example 101, 3-[1-(pyridin-2-ylmethyl)-1H-pyrazol-4-yl]-2-(2H-tetrazol-5-yl)benzenesulfonamide] | 14.06 | 125 | 3.906 | 0.0409 | 0.517 | 0.111 | –
NS(=O)(=O)c1ccc(-c2cccc(S(N)(=O)=O)c2-c2nn[nH]n2)cc1 [Example 61, 2-(2H-tetrazol-5-yl)biphenyl-3,4′-disulfonamide] | 6.25 | 25 | 0.5859 | 0.00634 | 0.058 | – | 0.062
NS(=O)(=O)c1nccc(-c2ccc3ncccc3c2)c1-c1nn[nH]n1 [Example 200, 4-(quinolin-6-yl)-3-(2H-tetrazol-5-yl)pyridine-2-sulfonamide] | 75 | 50 | 2.083 | 0.0302 | 0.963 | 0.0356 | –
Cc1nccn1-c1nc(-c2cccc(S(N)(=O)=O)c2-c2nn[nH]n2)cs1 [Example 102, 3-[2-(2-methyl-1H-imidazol-1-yl)-1,3-thiazol-4-yl]-2-(2H-tetrazol-5-yl)benzenesulfonamide] | 53.13 | >200 | 9.375 | 0.128 | 0.174 | 0.524 | –
COC(=O)N1CCC(c2ccc(-c3cccc(S(N)(=O)=O)c3-c3nnn[nH]3)cc2)CC1 [Example 28, methyl 4-[3′-sulfamoyl-2′-(1H-tetrazol-5-yl)biphenyl-4-yl]piperidine-1-carboxylate] | 12.5 | >200 | 12.5 | 0.000972 | 0.00374 | 0.0267 | –
NS(=O)(=O)c1cccc(-c2ccc3[nH]c(=O)[nH]c3c2)c1-c1nn[nH]n1 [Example 84, 3-(2-oxo-2,3-dihydro-1H-benzimidazol-5-yl)-2-(2H-tetrazol-5-yl)benzenesulfonamide] | 50 | 6.25 | 0.7813 | 0.00308 | 0.708 | 0.0232 | –
NS(=O)(=O)c1nccc(-c2ccc3c(c2)OCC(=O)N3)c1-c1nn[nH]n1 [Example 205, 4-(3-oxo-3,4-dihydro-2H-benzo[b][1,4]oxazin-7-yl)-3-(2H-tetrazol-5-yl)pyridine-2-sulfonamide] | 6.25 | 9.375 | 0.3906 | 0.0143 | 0.113 | 0.0241 | –
NS(=O)(=O)c1cccc(-c2ccc3c(c2)C(=O)NC3)c1-c1nn[nH]n1 [Example 53, 3-(3-oxo-2,3-dihydro-1H-isoindol-5-yl)-2-(2H-tetrazol-5-yl)benzenesulfonamide] | 6.25 | 37.5 | 0.5859 | 0.00441 | 0.0733 | 0.037 | –
NS(=O)(=O)c1cccc(-c2cccs2)c1-c1nn[nH]n1 [Example 20, 2-(2H-tetrazol-5-yl)-3-thiophen-2-ylbenzenesulfonamide] | 18.75 | 166.7 | 1.823 | 0.0204 | 0.331 | 0.362 | –
NS(=O)(=O)c1cccc(-c2ccc(C3(C(F)(F)F)OCCO3)nc2)c1-c1nn[nH]n1 [Example 22, 2-(2H-tetrazol-5-yl)-3-{6-[2-(trifluoromethyl)-1,3-dioxolan-2-yl]pyridin-3-yl}benzenesulfonamide] | 6.25 | 200 | 1.563 | 0.002 | 0.0318 | 0.0267 | –
NS(=O)(=O)c1cccc(C2CCCN(C(=O)C3CC3)C2)c1-c1nn[nH]n1 (stereo not drawn) [Example 177, 3-(1-(cyclopropanecarbonyl)piperidin-3-yl)-2-(2H-tetrazol-5-yl)benzenesulfonamide] | 37.5 | >200 | 6.25 | 0.0128 | 0.668 | 0.733 | –
NC(=O)c1cccc(-c2cccc(S(N)(=O)=O)c2-c2nn[nH]n2)c1 [Example 81, 3′-sulfamoyl-2′-(2H-tetrazol-5-yl)biphenyl-3-carboxamide] | 37.5 | 37.5 | 0.9766 | 0.0347 | 0.571 | 0.255 | –
NS(=O)(=O)c1cccc(-c2ccc(CC3OC(=O)NC3=O)cc2)c1-c1nn[nH]n1 (stereo not drawn) [Example 76, 4′-[(2,4-dioxo-1,3-oxazolidin-5-yl)methyl]-2-(2H-tetrazol-5-yl)biphenyl-3-sulfonamide] | 6.25 | >200 | 6.25 | 0.0171 | 0.0427 | 0.244 | –
NS(=O)(=O)c1nccc(-c2ccc3cccnc3c2)c1-c1nn[nH]n1 [Example 213, 4-(quinolin-7-yl)-3-(2H-tetrazol-5-yl)pyridine-2-sulfonamide] | 37.5 | 100 | 1.042 | 0.051 | 0.564 | 0.0624 | –
